# Results from US20260347399A1, “BRAIN PENETRATING PEPTIDES AND METHODS OF USE” (priority 2022, published 2026).
# Ends that are not written are not given here.
# Columns and labels:
# mouse brain = assay: In vivo phage display with CX4CYX library
# Description: In vivo phage display with CX4CYX library was performed in three selection rounds. Phage library was injected intravenously to Balb/c mice and allowed to circulate for one hour. After circulation, the animals were anesthetized and perfused intracardially with acid and detergent buffers. Brain and control organs were collected and homogenized in 1% NP40-LB. Bound phages were rescued by amplification in E. coli and their genomic DNA was sequenced by Ion Torrent next generation DNA sequencing system.
# A novel phage library CX4CYX was constructed based on the alanine-leucine screen to find new brain homing peptides). This knowledge directed us to construct a novel phage library CX4CYX (X—any amino acid), where Cys1, Cys6 and Tyr7 remained in their intact positions, and the four amino acid variable-domain laid between the cysteines, and one amino acid variability after Tyr7. Three rounds of phage bio-panning was performed to allow enrichment of peptides in the brain. Again acid and detergent buffers were used for perfusion to remove non-specifically bound phages from the brain after systemic administration of phage library (round 1) and recovered brain phage pools (round 2 and 3). HTS reads from round 1 to round 3 indicated decent enrichment of in-frame peptides in the brain (Table 6).
# [1] = system: GBM and normal brain parenchyma; assay: Synthetic peptide homing in glioma-bearing mice (IHC); format: in vivo, mouse; conditions: synthetic peptide i.v., 1 h
# Description: CVGTNCY (SEQ ID NO:2) peptide-phage or control phage were injected iv into mice, after one hour circulation animals were perfused with 20 ml PBS, organs were collected, weighed, and dropped to 1% NP40-LB solution. Organs were homogenized and titer of each tissue was determined. FAM-labeled peptides (2 mM of peptide in PBS) were injected intravenously and 3 hours later the animals were perfused with 20 mL of PBS. The organs were excised, snap-frozen in the vapor of liquid nitrogen, and stored at −80 °C. For confocal microscopy, the tissues were sectioned at 15 μm and stained with antibodies and DAPI.
# Cryosections (15 μm) on Superfrost Plus slides were fixed in cold methanol, washed in PBS, treated with 3% hydrogen peroxide, and blocked in PBS containing 0.05% Tween-20, 5% BSA, and 5% goat serum (GE Healthcare, UK) for 1 h. The sections were immunostained with rabbit anti-fluorescein (cat #A889, Thermo Fisher Scientific, MA, USA) antibody overnight at +4 °C. […] Sections were imaged with Leica Aperio VERSA microscope slide scanner. Imaged were processed with Aperio Image Scope (v12.4.3.5008).
# The synthetic CVGTNCY (SEQ ID NO:2) peptide or scrambled CVGTNCY (SEQ ID NO:2) homing in WT-GBM and VEGFko GBM-bearing mice was analyzed after i.v. injection and perfusion of the animals. Cryosections of glioma-bearing brains were stained with anti-FAM antibody and tyramide amplification kit to enhance the signal of the peptide.
# To assess homing of CVG peptide in glioblastoma, CVGTNCY (SEQ ID NO:2) peptide-phage was injected iv into mice bearing either WT-GBM, VEGFko, U87MG or NCH421k GBM, and to mice without a tumor. At one hour time point mice were perfused, brains and control organs collected and titered. […] (FIGS. 17A-17B) Distribution of CVG peptide in GBM and brain parenchyma was also assessed. CVGTNCY (SEQ ID NO:2) peptide or its scrambled version (CVYTCNG; (SEQ ID NO: 68)) was injected iv into glioma bearing mice, after 1 hour circulation mice were perfused and tissues of interest snap-frozen in liquid nitrogen.
# brain parenchyma = assay: Peptide-phage homing in vivo vs ex vivo; parameters: species or system mouse
# P3 stem cells = assay: In vitro phage binding to cells; format: cell-based, human; conditions: 4 °C, 1 h, highest ratio
# Description: To assess the binding of Cerepep phage, the cells were cultured in 24-well plates on polylysine coated glass coverslips until 80-90% confluency. The cells were incubated with Cerepep or control insertless peptide-phage at a final concentration of 5×10^7 pfu in 1 ml of DMEM+BSA (1%) at 4 °C for 1 h on a rocking platform. The wells were washed 4 times with 1 ml of DMEM+BSA (1%), the cells were lysed in 1 ml LB+NP40 and the amount of phage bound to the cells was determined by titering.
# Binding of SRRVISRAKLAAAL (SEQ ID NO:9) phage to a panel of different cell lines was studied in vitro.
# LRP-1 cluster II = molecular target: T1, LRP-1 cluster II (Homo sapiens, UniProt Q07954); assay: Bead binding assay (FACS); conditions: 10 nM LRP-1 cluster II, biotinylated peptide on beads
# T1 construct: detected by anti-human LRP-1 antibody
# Description: (§1) Briefly, 50 μl of Myone Dynabeads were washed multiple times and incubated with 100 μl of 2 mM biotinylated peptide at room temperature for 2h. Beads were washed twice with PBS, 0.01% Tween 20-DPBS, and 0.01% PBS-BSA. The beads were then incubated overnight with 10 nM LRP-1 cluster II, or LRP-1 cluster III, and Alexa Fluor 647 anti-human LRP-1 antibody (1:200) in PBS with 0.1% BSA (FIGS. 19A-19B).
# (§2) The beads were washed several times and analyzed by FACS. Samples are indicated as follows: • Negative control (−ve control): beads incubated with biotin (non-peptide), LRP-1 cluster III protein, and Alexa Fluor 647 anti-human antibody; • Positive control for the cluster II expts: beads incubated with biotinylated-Angiopep2 peptide, LRP-1 cluster II protein and Alexa Fluor 647 anti-human LRP-1 antibody (see FIG. 19A); and • Positive control for cluster III expts: beads incubated with biotinylated-RPAR peptide, Neuropilin-1 b1b2 protein, (1:200) anti-neuropilin-1 antibody, (1:200) and Alexa Fluor 647 anti-rabbit antibody (see FIG. 19B).
# (§3) 10,000 events per condition were analyzed. Experient was performed in three replicates per condition and t-test compared scramble sequence (SARVISRAKLARAL (SEQ ID NO:70)) with Cerepep.
# LRP-1 cluster III = molecular target: T2, LRP-1 cluster III (Homo sapiens, UniProt Q07954); assay: Bead binding assay (FACS); conditions: 10 nM LRP-1 cluster III, biotinylated peptide on beads
# T2 construct: detected by anti-human antibody
# Description: as §1, §2, §3
# [2] = WT-GBM and VEGFko GBM-bearing mice
# T2 sequence (Q07954 2522-2941 limits assumed): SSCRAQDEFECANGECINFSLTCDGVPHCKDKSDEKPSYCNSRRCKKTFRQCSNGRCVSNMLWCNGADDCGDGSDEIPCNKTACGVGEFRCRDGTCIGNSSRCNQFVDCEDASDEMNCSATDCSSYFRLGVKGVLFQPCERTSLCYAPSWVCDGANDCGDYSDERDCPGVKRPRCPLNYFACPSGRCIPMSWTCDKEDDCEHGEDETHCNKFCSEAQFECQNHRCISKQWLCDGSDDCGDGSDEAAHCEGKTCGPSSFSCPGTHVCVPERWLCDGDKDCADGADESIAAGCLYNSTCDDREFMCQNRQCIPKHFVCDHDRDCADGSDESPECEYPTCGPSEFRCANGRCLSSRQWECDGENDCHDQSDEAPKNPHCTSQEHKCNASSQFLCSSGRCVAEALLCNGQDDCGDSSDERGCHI
# T1 sequence (Q07954 786-1165 limits assumed): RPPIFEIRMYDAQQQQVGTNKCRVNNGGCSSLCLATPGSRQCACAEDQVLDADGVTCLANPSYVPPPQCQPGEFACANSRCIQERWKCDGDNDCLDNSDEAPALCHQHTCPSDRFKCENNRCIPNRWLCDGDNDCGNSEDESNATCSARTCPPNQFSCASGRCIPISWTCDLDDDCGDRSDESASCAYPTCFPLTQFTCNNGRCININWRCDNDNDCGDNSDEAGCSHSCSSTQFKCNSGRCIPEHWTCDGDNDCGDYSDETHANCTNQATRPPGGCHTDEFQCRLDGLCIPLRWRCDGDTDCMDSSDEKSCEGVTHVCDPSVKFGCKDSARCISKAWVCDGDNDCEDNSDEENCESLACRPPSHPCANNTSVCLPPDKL
substance,measurement,setting,value
CVGTNCY,R1 reads,mouse brain; round 1,12 reads
same,R3 reads,mouse brain; round 3,37038 reads
same,reads in the brain compared to CAGALCY,"mouse brain; round 3, vs CAGALCY",about 40 times
same,R3 > R1 (ratio of sequencing reads between round 3 and round 1),mouse brain; round 3 / round 1,3087
same,cell type targeted in normal brain,[1],binding to the cortical neurons in the normal brain
same,detection in brain parenchyma,[1]; [2],detected in the brain parenchyma
same,detection/targeting in GBM,[1]; [2],activated microglia in GBM
same,detection in brain parenchyma,"[1]; WT-GBM and VEGFko GBM-bearing mice, listed as CVG",homed to brain parenchyma and GBM
same,brain homing in vivo after iv injection,brain parenchyma,homes to the brain parenchyma
"SRRVISRAKLAAAL [Cerepep, SRRVISRAKLAAAL]","binding of peptide-phage, fold over insertless phage",P3 stem cells,at least 50 fold
same,interaction with LRP-1 cluster II,LRP-1 cluster II,interacts with LRP-1 cluster II
same,interaction with LRP-1 cluster III,LRP-1 cluster III,interacts with LRP-1 cluster II and cluster III
